Results from paper PMC6269910 (Molecules, 2013).

Tests used:
LPO = LPO (TBARS) level in liver, kidney, colon, brain; format: in vivo, mice; conditions: 72 h
Protocol: (§1) Tissue samples were homogenized with ice-cold 150 mM KCl for the determination of LPO and glutathione (GSH) levels. The LPO levels were assayed by monitoring TBARS formation as described above.

[1] = system: acetic acid-induced abdominal constriction; assay: Acetic acid-induced writhing (Koster) test; format: in vivo, mice; conditions: 100 mg/kg oral
Summary of the method: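 Test samples in 0.5% CMC/water given orally to mice; vehicle controls. One hour later, 3% acetic acid (0.1 mL/10 g) i.p.; writhes counted for 10 min starting 5 min post-injection. Activity expressed as % change from writhing controls; ASA 200 mg/kg as reference.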

[2] = biological target: T1, HCV NS5B RNA dependent RNA polymerase (Hepatitis C virus genotype 1b, UniProt P26663); assay: NS5B inhibition assay (primer dependent elongation, poly rA-U12); format: biochemical; conditions: read-out: Anti-NS5B Activity (% Inh., 100 µM)
T1 construct: HCV NS5B RNA dependent RNA polymerase activity
Summary of the method: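 Primer-dependent elongation on poly rA-U12 by HCV genotype 1b NS5B RdRp; compounds from DMSO stocks, preliminary screen at 100 μM. Activity expressed relative to a DMSO-matched no-inhibitor control set at 100%.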

[3] = system: lipid peroxidation in stomach; assay: Lipid peroxidation in stomach (TBARS); format: in vivo, mice; conditions: 100 mg/kg, 8 h after analgesic test
stomach = assay: Gastric-ulcerogenic effect (ulcer score); format: in vivo, mice; conditions: 200 mg/kg p.o.; animals with lesions/animals
glutathione (GSH) = assay: GSH level in liver, kidney, colon, brain; format: in vivo, mice; conditions: 72 h
Protocol: as §1

[4] = system: 60 human tumor cell lines; assay: NCI60 in vitro cancer screen; format: cell-based; conditions: 10 µM; variety of cell lines
From the text: The selected compound N-(ethylcarbamothioyl)-4-[5-(4-methylphenyl)-3-(trifluoromethyl)-1H-pyrazol-1-yl]benzenesulfonamide (1a) was screened by the National Institutes of Health (NIH) for anticancer activity against 60 human tumor cell lines. Most of the compounds in the series of structures submitted include one or more functional groups that have been found troublesome to the development of successful drug candidates. In addition, the selection criteria guidance available at the following DTP web site: http://www.dtp.nci.nih.gov/docs/misc/common_files/guidelines.html. For NCI criteria, compounds, which reduce the growth of any one of the cell lines to approximately 32% or less, are passed on for evaluation in the full panel of cell lines over a 5-log dose range.
The methodology of the NCI60 in vitro cancer screen can be found on-line at http://dtp.nci.nih.gov/branches/btb/ivclsp.html and can be reviewed on their web site.

[5] = system: carrageenan-induced hind paw edema; assay: Carrageenan-induced hind paw edema model; format: in vivo, mice
Protocol: Locally bred balb/c mice of both sexes (30-35 g) were purchased from the animal breeding laboratories of Inonu University ([…], Turkey). The animals were fed a standard pellet diet and water ad libitum in a temperature-controlled room. On the day before the treatments, food was withdrawn, but the animals were allowed free access of water. The allocation of animals to different groups was randomized, and the experiments were carried out under blind conditions. Mice used in the present study were cared for in accordance with the directory of the Inonu University Animal Care Unit, which applies the guidelines of the National Institutes of Health on laboratory animal welfare. Procedures involving animals and their care were conducted in conformity with international laws and policies and animal studies accepted by Inonu University Ethical Council (2011/A17). Test samples, suspended in a mixture of distilled water and 0.5% sodium carboxymethyl cellulose (CMC), were given orally to the animals. The control group animals received the same experimental handling as those of the test groups, except that the drug treatment was replaced with appropriate volumes of the dosing vehicle. […] For the preliminary activity screening, each test group was composed of four mice. […] Because of the daily changing circumstance, we used another control group for each experiment. For the determination of the effects on carrageenan-induced paw oedema, the modified method of Kasahara et al. was employed. One hour after the oral administration of either test sample or dosing vehicle, each mouse was injected with a freshly prepared (0.5 mg/25 μL) suspension of carrageenan (Sigma, St. Louis, MO, USA) in physiological saline (154 mM NaCl). The subplantar tissue of the right hind paw was the injection site for all mice. The contralateral paw (left hind paw) was injected with 25 μL saline solution as the internal control. […] The difference in footpad thickness between the right and left foot indicated the degree of inflammation for each mouse. The change in paw volume, either increase or decrease, was calculated and compared with the control group (dosing vehicle) and analyzed using statistical methods.

T1 sequence (P26663 2420-3010): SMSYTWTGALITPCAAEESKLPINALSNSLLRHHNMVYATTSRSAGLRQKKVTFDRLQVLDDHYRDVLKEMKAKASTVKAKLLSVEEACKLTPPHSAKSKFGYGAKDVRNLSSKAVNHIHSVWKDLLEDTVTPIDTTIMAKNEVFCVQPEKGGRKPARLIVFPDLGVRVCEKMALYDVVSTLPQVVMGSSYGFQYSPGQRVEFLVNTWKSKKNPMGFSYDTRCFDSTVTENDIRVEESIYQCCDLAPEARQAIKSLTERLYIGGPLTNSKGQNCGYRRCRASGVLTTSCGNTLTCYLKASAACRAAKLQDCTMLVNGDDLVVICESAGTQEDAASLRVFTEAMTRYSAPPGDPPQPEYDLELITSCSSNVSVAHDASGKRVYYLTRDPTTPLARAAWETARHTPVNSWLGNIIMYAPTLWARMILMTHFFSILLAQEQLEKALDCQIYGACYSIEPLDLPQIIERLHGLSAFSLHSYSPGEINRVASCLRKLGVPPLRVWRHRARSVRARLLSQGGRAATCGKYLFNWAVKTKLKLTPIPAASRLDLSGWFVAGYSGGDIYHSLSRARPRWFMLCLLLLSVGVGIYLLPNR

SMILES: CCNC(=S)NS(=O)(=O)c1ccc(-n2nc(C(F)(F)F)cc2-c2ccc(C)cc2)cc1 [Compound 1a, N-(Ethylcarbamothioyl)-4-[5-(4-methylphenyl)-3-(trifluoromethyl)-1H-pyrazol-1-yl] benzenesulfonamide]
- LPO (LPO; brain, 100 mg/kg oral): 8.36 ± 2.61 nmol/g tissue
- LPO (LPO; brain, 200 mg/kg oral): 9.40 ± 2.08 nmol/g tissue
- LPO (LPO; colon, 100 mg/kg oral): 8.66 ± 2.23 nmol/g tissue
- LPO (LPO; colon, 200 mg/kg oral): 11.04 ± 2.11 nmol/g tissue
- LPO (LPO; kidney, 100 mg/kg oral): 10.96 ± 2.01 nmol/g tissue
- LPO (LPO; kidney, 200 mg/kg oral): 12.56 ± 2.96 nmol/g tissue
- LPO (LPO; liver, 100 mg/kg oral): 9.78 ± 1.30 nmol/gtissue
- LPO (LPO; liver, 200 mg/kg oral): 13.72 ± 3.05 nmol/gtissue
- Writhing test (% inh.) [1]: 67.8%
- Writhing test (Mean ± SEM) ([1]; writhings counted 10 min from 5 min after acetic acid): 5.6 ± 0.9
- melting point: 215 to 218 °C
- inhibition at 100 µM [2]: 49.4%
- Lipid peroxidation [3]: 387.7 ± 12.8 nmol TBARS/g wet weight
- Ulcer score (stomach): 0/5
- GSH (glutathione (GSH); brain, 100 mg/kg oral): 18.7 ± 5.52 µmol/g tissue
- GSH (glutathione (GSH); brain, 200 mg/kg oral): 18.74 ± 3.03 µmol/g tissue
- GSH (glutathione (GSH); colon, 100 mg/kg oral): 27.22 ± 2.41 µmol/g tissue
- GSH (glutathione (GSH); colon, 200 mg/kg oral): 25.16 ± 2.76 µmol/g tissue
- GSH (glutathione (GSH); kidney, 100 mg/kg oral): 17.02 ± 5.23 µmol/g tissue
- GSH (glutathione (GSH); kidney, 200 mg/kg oral): 18.26 ± 3.28 µmol/g tissue
- GSH (glutathione (GSH); liver, 100 mg/kg oral): 22.68 ± 1.20 µmol/g tissue
- GSH (glutathione (GSH); liver, 200 mg/kg oral): 24.58 ± 4.47 µmol/g tissue
- cell growth inhibition [4]: negligible
- Swelling in thickness ± SEM ([5]; 50 mg/kg per os, 90 min): 70.0 ± 6.5 × 10^−2 mm
- percent inhibitory activity ([5]; 50 mg/kg per os, 90 min): 2.7%
- Swelling in thickness ± SEM ([5]; 50 mg/kg per os, 180 min): 72.0 ± 5.1 × 10^−2 mm
- percent inhibitory activity ([5]; 50 mg/kg per os, 180 min): 21.7%
- Swelling in thickness ± SEM ([5]; 50 mg/kg per os, 270 min): 90.0 ± 9.3 × 10^−2 mm
- percent inhibitory activity ([5]; 50 mg/kg per os, 270 min): 25.6%
- Swelling in thickness ± SEM ([5]; 50 mg/kg per os, 360 min): 100.0 ± 6.5 × 10^−2 mm
- percent inhibitory activity ([5]; 50 mg/kg per os, 360 min): 22.4%
- Swelling in thickness ± SEM ([5]; 100 mg/kg per os, 90 min): 58.1 ± 6.6 × 10^−2 mm
- percent inhibitory activity ([5]; 100 mg/kg per os, 90 min): 19.4%
- Swelling in thickness ± SEM ([5]; 100 mg/kg per os, 180 min): 72.9 ± 11.9 × 10^−2 mm
- percent inhibitory activity ([5]; 100 mg/kg per os, 180 min): 19.7%
- Swelling in thickness ± SEM ([5]; 100 mg/kg per os, 270 min): 72.7 ± 16.7 × 10^−2 mm
- percent inhibitory activity ([5]; 100 mg/kg per os, 270 min): 39.5%
- Swelling in thickness ± SEM ([5]; 100 mg/kg per os, 360 min): 77.9 ± 11.7 × 10^−2 mm
- percent inhibitory activity ([5]; 100 mg/kg per os, 360 min): 39.7%
- Swelling in thickness ± SEM ([5]; 200 mg/kg per os, 90 min): 54.6 ± 7.9 × 10^−2 mm
- percent inhibitory activity ([5]; 200 mg/kg per os, 90 min): 25.0%
- Swelling in thickness ± SEM ([5]; 200 mg/kg per os, 180 min): 74.2 ± 8.2 × 10^−2 mm
- percent inhibitory activity ([5]; 200 mg/kg per os, 180 min): 19.3%
- Swelling in thickness ± SEM ([5]; 200 mg/kg per os, 270 min): 117.5 ± 9.8 × 10^−2 mm
- percent inhibitory activity ([5]; 200 mg/kg per os, 270 min): 2.9%
- Swelling in thickness ± SEM ([5]; 200 mg/kg per os, 360 min): 97.4 ± 5.6 × 10^−2 mm
- percent inhibitory activity ([5]; 200 mg/kg per os, 360 min): 24.5%
- anti-inflammatory activity (in words) ([5]; all doses, all measurement intervals): moderate-to-good
